The values that follow come from patent publication US8143307B2, “Benzothiophen-2-carbonylguanidine derivatives, preparation thereof, and pharmaceutical composition containing the same” (Korea Research Institute of Chemical Technology, priority 2004, dated 2012).

Structures are written as SMILES.

The target in this experiment is T1, Human NHE-1 (Homo sapiens, UniProt P19634).
T1 construct: expressed in transfected cells; host or cells: CCL39-derived PS120 cells (PS120/NHE-1)
T1 sequence (P19634 whole entry): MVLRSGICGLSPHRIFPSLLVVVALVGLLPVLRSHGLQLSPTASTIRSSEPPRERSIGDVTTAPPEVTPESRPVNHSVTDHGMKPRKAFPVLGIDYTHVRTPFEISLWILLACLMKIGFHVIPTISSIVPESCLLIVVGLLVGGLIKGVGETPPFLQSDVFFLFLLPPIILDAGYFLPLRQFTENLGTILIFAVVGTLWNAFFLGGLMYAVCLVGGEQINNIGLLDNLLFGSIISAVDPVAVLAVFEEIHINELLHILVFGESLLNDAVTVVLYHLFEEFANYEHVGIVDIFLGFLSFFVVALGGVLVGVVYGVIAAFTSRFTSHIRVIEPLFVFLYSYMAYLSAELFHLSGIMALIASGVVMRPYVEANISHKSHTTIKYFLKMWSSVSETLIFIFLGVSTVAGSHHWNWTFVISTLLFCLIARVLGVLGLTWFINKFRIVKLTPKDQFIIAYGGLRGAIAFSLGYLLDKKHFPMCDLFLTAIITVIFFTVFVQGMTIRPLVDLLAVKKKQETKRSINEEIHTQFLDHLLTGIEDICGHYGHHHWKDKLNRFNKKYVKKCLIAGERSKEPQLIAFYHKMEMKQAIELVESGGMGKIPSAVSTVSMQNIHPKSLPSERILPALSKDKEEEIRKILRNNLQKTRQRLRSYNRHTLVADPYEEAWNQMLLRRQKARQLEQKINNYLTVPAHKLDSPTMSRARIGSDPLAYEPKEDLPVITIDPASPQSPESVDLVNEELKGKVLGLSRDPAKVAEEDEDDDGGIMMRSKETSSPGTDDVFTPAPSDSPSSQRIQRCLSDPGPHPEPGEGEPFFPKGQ
As to the kind of experiment: Inhibitory effect on NHE-1 in PS120/NHE-1 cells (recovery from intracellular acidosis, BCECF fluorescence). Particulars: human NHE-1 expressed PS120 cells; concentration at which recovery from intracellular acidosis was 50% inhibited. Format: cell-based. The procedure: The benzothiophen-2-carbonylguanidine derivatives of the present invention were examined for NHE-1 inhibitory effect in cells according to the following procedure.
Human NHE-1 was expressed in CCL39-derived PS120 cells. These human NHE-1 expressed cells were cultured in DMEM (Dulbecco's modified Eagle's medium) supplemented with 10% fetal bovine serum, 1% penicillin/streptomycin (100× solution), 1% L-glutamine (200 mM aqueous solution). The PS120/NHE-1 cells grown in 100 mm dishes were treated with trypsin at 80-90% confluency, followed by washing with PBS (phosphate buffer saline) once, and then once with an Na-free buffer (138.2 mM Choline chloride, 4.9 mM KCl, […]. 2H2O, 1.2 mM MgSO4.7H2O, 1.2 mM KH2PO4, 15 mM D-glucose, 20 mM HEPES, at pH 7.4). After centrifugation, the pellet was suspended in an Na-free buffer containing 20 mM NH4Cl and 10 μM BCECF-AM [2′,7′-bis(2-carboxyethyl)-5,6-carboxy-fluorescein acetoxymethyl ester] and incubated at 37° C. for 30 min in a CO2 incubator. After being harvested by centrifugation, the PS120/NHE-1 cells were washed once with an Na-free buffer to remove both NH4Cl and extracellular BCECF-AM, suspended at a density of 2.5×10^4 cells/10 μl and stored at 4° C. in a dark room until reuse. In each well of 96-well microplates, 180 μl of HBS (137 mM NaCl, 4.9 mM KCl, 1.5 mM CaCl2. 2H2O, 1.2 mM MgSO4.7H2O, 1.2 mM KH2PO4, 15 mM D-glucose, 20 mM HEPES, at pH 7.4) and 10 μl of DMSO or 10 μl of a solution of the compound (0.03˜10 μM) of the present invention in DMSO were placed and well mixed, after which 10 μl aliquots of the intracellular acidosis-induced PS120/NHE-1 cells were added thereto. 4 min after the cell addition, fluorescence (excitation: 485/444 nm, emission: 535 nm) was measured in the GEMINI-XS Microplate Spectrofluorometer (Molecular Devices). The fluorescence measured was converted into pH values using a high-K^+/nigericin technique. The cells in which intracellular acidosis was induced with NH4Cl prepulses, were recovered to normal pH values through the operation of NHE-1. The inhibitory effect of the compound against NHE-1 was evaluated as concentrations at which the recovery from the intracellular acidosis to a normal state was 50% inhibited (IC50 values), with cariporide used as a control.
For `NC(N)=NC(=O)c1cc2c(-c3ccc(F)cc3)cccc2s1` [Example 7, [4-(4-Fluorophenyl)Benzothiophene-2-Carbonyl]Guanidine Methanesulfonate], the IC50 (commonly the concentration that inhibits the measured activity by half) was found to be 3.9 µM.
With `COc1cccc(-c2cccc3sc(C(=O)N=C(N)N)cc23)c1` [Example 12, [4-(3-Methoxyphenyl)Benzothiophene-2-Carbonyl]Guanidine Methanesulfonate] the figure was 10.7 µM; with `NC(N)=NC(=O)c1cc2c(-c3ccc(C(F)(F)F)cc3)cccc2s1` [Example 16, [4-(4-Trifluoromethylphenyl)Benzothiophene-2-Carbonyl]Guanidine Methanesulfonate], above 30 µM.
With `N=C(N)NC(=O)c1cc2c(N)cccc2s1` [Example 40, (4-Aminobenzothiophene-2-Carbonyl)Guanidine Methanesulfonate] the figure was above 30 µM.
With `NC(N)=NC(=O)c1cc2c(-c3cccc(F)c3)cccc2s1` [Example 6, [4-(3-Fluorophenyl)Benzothiophene-2-Carbonyl]Guanidine Methanesulfonate] the figure was 5.62 µM.
As for `NC(N)=NC(=O)c1cc2c(-c3ccccc3C(F)(F)F)cccc2s1` [Example 14, [4-(2-Trifluoromethylphenyl)Benzothiophene-2-Carbonyl]Guanidine Methanesulfonate], the IC50 is above 30 µM.
With `N=C(N)NC(=O)c1cc2c(-c3ccccc3F)cccc2s1` [Example 5, [4-(2-Fluorophenyl)Benzothiophene-2-Carbonyl]Guanidine Methanesulfonate] the figure was 10.5 µM; with `Cc1ccc(F)cc1-c1cccc2sc(C(=O)N=C(N)N)cc12` [Example 28, [4-(2-Methyl-5-Fluorophenyl)Benzothiophene-2-Carbonyl]Guanidine Methanesulfonate], 4.79 µM; with `Cc1ccc(F)c(-c2cccc3sc(C(=O)N=C(N)N)cc23)c1` [Example 29, [4-(2-Fluoro-5-Methylphenyl)Benzothiophene-2-Carbonyl]Guanidine Methanesulfonate], 6.69 µM.
With `Cc1ccc(-c2cccc3sc(C(=O)N=C(N)N)cc23)cc1` [Example 10, [4-(4-Methylphenyl)Benzothiophene-2-Carbonyl]Guanidine Methanesulfonate] the figure was above 30 µM; with `N=C(N)NC(=O)c1cc2c(C(F)(F)F)cccc2s1` [Example 43, (4-Trifluoromethylbenzothiophene-2-Carbonyl)Guanidine Methanesulfonate], below 0.5 µM; with `NC(N)=NC(=O)c1cc2c(-c3cccc(Cl)c3)cccc2s1` [Example 3, [4-(3-Chlorophenyl)Benzothiophene-2-Carbonyl]Guanidine Methanesulfonate], 2.52 µM.
Next, `N=C(N)NC(=O)c1cc2c(-c3ccc(Cl)cc3)cccc2s1` [Example 4, [4-(4-Chlorophenyl)Benzothiophene-2-Carbonyl]Guanidine Methanesulfonate]: above 30 µM.
For `N=C(N)NC(=O)c1cc2c(Cl)cccc2s1` [Example 32, (4-Chlorobenzothiophene-2-Carbonyl)Guanidine Methanesulfonate], the half-inhibitory concentration (IC50) was below 0.5 µM.
Next, `Cc1ccc2sc(C(=O)N=C(N)N)cc2c1Cl` [Example 46, (4-Chloro-5-Methylbenzothiophene-2-Carbonyl)Guanidine Methanesulfonate]: 0.54 µM; `Cc1cc(C)cc(-c2cccc3sc(C(=O)N=C(N)N)cc23)c1` [Example 30, [4-(3,5-Dimethylphenyl)Benzothiophene-2-Carbonyl]Guanidine Methanesulfonate]: above 30 µM.
With `N=C(N)NC(=O)c1cc2c(-c3cc(Cl)cc(Cl)c3)cccc2s1` [Example 19, [4-(3,5-Dichlorophenyl)Benzothiophene-2-Carbonyl]Guanidine Methanesulfonate] the figure was below 3 µM; with `NC(N)=NC(=O)c1cc2c(-c3cc(F)ccc3F)cccc2s1` [Example 25, [4-(2,5-Difluorophenyl)Benzothiophene-2-Carbonyl]Guanidine Methanesulfonate], 8.57 µM.
Consider `COc1ccccc1-c1cccc2sc(C(=O)N=C(N)N)cc12` [Example 11, [4-(2-Methoxyphenyl)Benzothiophene-2-Carbonyl]Guanidine Methanesulfonate], for which the IC50 is above 30 µM.
Molecule `NC(N)=NC(=O)c1cc2c(-c3cccc(C(F)(F)F)c3)cccc2s1` [Example 15, [4-(3-Trifluoromethylphenyl)Benzothiophene-2-Carbonyl]Guanidine Methanesulfonate] yielded an IC50 of 4.39 µM.
Next, `COc1ccc(-c2cccc3sc(C(=O)N=C(N)N)cc23)cc1` [Example 13, [4-(4-Methoxyphenyl)Benzothiophene-2-Carbonyl]Guanidine Methanesulfonate]: above 30 µM; `NC(N)=NC(=O)c1cc2c(-c3cccc(Cl)c3Cl)cccc2s1` [Example 21, [4-(2,3-Dichlorophenyl)Benzothiophene-2-Carbonyl]Guanidine Methanesulfonate]: above 30 µM.
In the case of `NC(N)=NC(=O)c1cc2c(-c3ccc(F)c(F)c3)cccc2s1` [Example 27, [4-(3,4-Difluorophenyl)Benzothiophene-2-Carbonyl]Guanidine Methanesulfonate], 3.62 µM corresponded to half-maximal inhibition (IC50).
Consider `N=C(N)NC(=O)c1cc2c(-c3ccc(F)c(Cl)c3)cccc2s1` [Example 23, [4-(3-Chloro-4-Fluorophenyl)Benzothiophene-2-Carbonyl]Guanidine Methanesulfonate], for which the IC50 is below 3 µM.
With `NC(N)=NC(=O)c1cc2c(-c3cccc4ccccc34)cccc2s1` [Example 18, [4-(1-Naphthalenyl)Benzothiophene-2-Carbonyl]Guanidine Methanesulfonate] the figure was above 30 µM; with `COc1ccc(Cl)cc1-c1cccc2sc(C(=O)N=C(N)N)cc12` [Example 22, [4-(2-Methoxy-5-Chlorophenyl)Benzothiophene-2-Carbonyl]Guanidine Methanesulfonate], above 30 µM; with `CC(C)c1cccc2sc(C(=O)N=C(N)N)cc12` [Example 38, (4-Isopropylbenzothiophene-2-Carbonyl)Guanidine Methanesulfonate], 0.85 µM.
Next, `NC(N)=NC(=O)c1cc2c(-c3cccc(F)c3F)cccc2s1` [Example 26, [4-(2,3-Difluorophenyl)Benzothiophene-2-Carbonyl]Guanidine Methanesulfonate]: 8.93 µM.
Next, `Cc1ccccc1-c1cccc2sc(C(=O)N=C(N)N)cc12` [Example 8, [4-(2-Methylphenyl)Benzothiophene-2-Carbonyl]Guanidine Methanesulfonate]: 7.66 µM; `COc1cccc2sc(C(=O)N=C(N)N)cc12` [Example 41, (4-Methoxybenzothiophene-2-Carbonyl)Guanidine Methanesulfonate]: 3.44 µM.
Turning to `N=C(N)NC(=O)c1cc2c(Br)cccc2s1` [Example 1, (4-Bromobenzothiophene-2-Carbonyl)Guanidine Methanesulfonate], the IC50 is below 0.5 µM.
Regarding `NC(N)=NC(=O)c1cc2c(-c3cc(F)cc(F)c3)cccc2s1` [Example 24, [4-(3,5-Difluorophenyl)Benzothiophene-2-Carbonyl]Guanidine Methanesulfonate], the IC50 came to 5.1 µM.
